Experimental data published in ChEMBL document CHEMBL5143683, “Explorations of novel pyridine-pyrimidine hybrid phosphonate derivatives as aurora kinase inhibitors” (Bioorg Med Chem Lett, 2022).
Active and inactive are the calls of the source. The rule behind the calls is not given here.

Experiments:
[1] = test system: A549; assay: Anticancer activity against human A549 cells assessed as reduction in cell viability measured after 24 hrs by MTT assay; assay type: functional, cell-based; details: A549, 24 h
[2] = test system: HepG2; assay: Anticancer activity against human HepG2 cells assessed as reduction in cell viability measured after 24 hrs by MTT assay; assay type: functional, cell-based; details: HepG2, 24 h
[3] = test system: HeLa; assay: Anticancer activity against human HeLa cells assessed as reduction in cell viability measured after 24 hrs by MTT assay; assay type: functional, cell-based
[4] = test system: MCF7; assay: Anticancer activity against human MCF7 cells assessed as reduction in cell viability measured after 24 hrs by MTT assay; assay type: functional, cell-based; details: MCF7, 24 h
[5] = test system: HL-60; assay: Anticancer activity against human HL-60 cells assessed as reduction in cell viability measured after 24 hrs by MTT assay; assay type: functional, cell-based; details: HL-60, 24 h
[6] = Cytotoxicity against human L02 cells assessed as reduction in cell viability measured after 24 hrs by MTT assay; assay type: toxicity, cell-based
[7] = Selectivity index, ratio of IC50 for human L02 cells to IC50 for human Hep-G2 cells; assay type: toxicity; details: L02 cells and Hep-G2 cells, read-out: Ratio IC50
[8] = biological target: T1, Aurora kinase A (Homo sapiens, UniProt O14965); assay: Inhibition of Aurora A (unknown origin) using kemptide acetate as substrate measured after 30 mins by kinase-glo luminescence assay
T1 sequence (O14965 whole entry): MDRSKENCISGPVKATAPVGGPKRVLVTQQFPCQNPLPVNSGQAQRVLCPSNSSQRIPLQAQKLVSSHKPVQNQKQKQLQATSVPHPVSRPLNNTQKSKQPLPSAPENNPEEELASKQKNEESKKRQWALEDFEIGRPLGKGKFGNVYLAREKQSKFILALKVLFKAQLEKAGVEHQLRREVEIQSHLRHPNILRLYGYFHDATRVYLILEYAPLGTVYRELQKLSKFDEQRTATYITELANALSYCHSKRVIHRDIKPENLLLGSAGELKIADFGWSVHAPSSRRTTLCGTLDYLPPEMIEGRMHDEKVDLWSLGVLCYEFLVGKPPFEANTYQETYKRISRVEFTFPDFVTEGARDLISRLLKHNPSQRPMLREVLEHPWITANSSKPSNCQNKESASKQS

[9] = biological target: Aurora kinase B (Homo sapiens, UniProt Q96GD4); assay: Inhibition of Aurora B (unknown origin) using kemptide acetate as substrate measured after 30 mins by kinase-glo luminescence assay
[10] = test system: HepG2; assay: Induction of morphological changes in human HepG2 cells assessed as cell detachment at IC50 by inverted microscopy; assay type: functional, cell-based
[11] = test system: HepG2; assay: Induction of morphological changes in human HepG2 cells assessed as […] at IC50 by inverted microscopy; assay type: functional, cell-based
[12] = test system: HepG2; assay: Induction of morphological changes in human HepG2 cells assessed as cell shrinkage at IC50 by inverted microscopy; assay type: functional, cell-based
[13] = test system: HepG2; assay: Induction of morphological changes in human HepG2 cells assessed as reduction in number of viable cells at IC50 by inverted microscopy; assay type: functional, cell-based
[14] = test system: HeLa; assay: Induction of morphological changes in human HeLa cells assessed as cell detachment at IC50 by inverted microscopy; assay type: functional, cell-based
[15] = test system: HeLa; assay: Induction of morphological changes in human HeLa cells assessed as […] at IC50 by inverted microscopy; assay type: functional, cell-based
[16] = test system: HeLa; assay: Induction of morphological changes in human HeLa cells assessed as cell shrinkage at IC50 by inverted microscopy; assay type: functional, cell-based
[17] = test system: HeLa; assay: Induction of morphological changes in human HeLa cells assessed as reduction in number of viable cells at IC50 by inverted microscopy; assay type: functional, cell-based

Aurora kinase B, sequence (Q96GD4 whole entry): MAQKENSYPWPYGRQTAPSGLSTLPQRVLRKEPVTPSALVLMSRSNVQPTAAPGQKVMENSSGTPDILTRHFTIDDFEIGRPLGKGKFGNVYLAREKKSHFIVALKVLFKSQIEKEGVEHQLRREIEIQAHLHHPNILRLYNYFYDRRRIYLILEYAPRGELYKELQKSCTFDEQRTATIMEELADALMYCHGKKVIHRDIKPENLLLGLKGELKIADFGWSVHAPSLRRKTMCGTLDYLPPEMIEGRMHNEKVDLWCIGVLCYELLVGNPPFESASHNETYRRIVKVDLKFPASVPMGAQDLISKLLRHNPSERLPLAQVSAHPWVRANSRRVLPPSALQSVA

Compound: CCOP(=O)(OCC)C(Nc1ccc(C)c(Nc2nccc(-c3cccnc3)n2)c1)c1ccn[nH]1 (stereo not given)
- IC50 [1]: 15.1 µM
- IC50 [2]: 18.6 µM
- IC50 [3]: 6.88 µM
- IC50 [4]: 2.36 µM
- IC50 [5]: 3.01 µM
- IC50 at 24 h [6]: 83.2 µM
- selectivity ratio [7]: 5.5
- IC50 [8]: 0.015 µM
- IC50 [9]: 0.012 µM

Compound: CCOP(=O)(OCC)C(Nc1ccc(C)c(Nc2nccc(-c3cccnc3)n2)c1)c1ccc(F)cc1 (stereo not given)
- IC50 [1]: 24.1 µM
- IC50 [2]: 24.9 µM
- IC50 [3]: 12.3 µM
- IC50 [4]: 6.11 µM
- IC50 [5]: 7.23 µM

Compound: CCOP(=O)(OCC)C(Nc1ccc(C)c(Nc2nccc(-c3cccnc3)n2)c1)c1ccc(C)cc1 (stereo not given)
- IC50 [1]: 22 µM
- IC50 [2]: 21.9 µM
- IC50 [3]: 10.6 µM
- IC50 [4]: 5.96 µM
- IC50 [5]: 6.75 µM

Compound: CCOP(=O)(OCC)C(Nc1ccc(C)c(Nc2nccc(-c3cccnc3)n2)c1)c1ccccc1 (stereo not given)
- IC50 [1]: 40.2 µM
- IC50 [2]: 42.1 µM
- IC50 [3]: 32.1 µM
- IC50 [4]: 8.88 µM
- IC50 [5]: 9.02 µM

Compound: CCOP(=O)(OCC)C(Nc1ccc(C)c(Nc2nccc(-c3cccnc3)n2)c1)c1scnc1C (stereo not given)
- IC50 [1]: 13.8 µM
- IC50 [2]: 18 µM
- IC50 [3]: 6.02 µM
- IC50 [4]: 1.55 µM
- IC50 [5]: 2.32 µM
- IC50 at 24 h [6]: 74.9 µM
- selectivity ratio [7]: 5.5
- IC50 [8]: 0.033 µM
- IC50 [9]: 0.015 µM

Compound: CCOP(=O)(OCC)C(Nc1ccc(C)c(Nc2nccc(-c3cccnc3)n2)c1)c1ccc(O)cc1 (stereo not given)
- IC50 [1]: 21.6 µM
- IC50 [2]: 21.6 µM
- IC50 [3]: 10.4 µM
- IC50 [4]: 5.67 µM
- IC50 [5]: 5.98 µM

Compound: CCOP(=O)(OCC)C(Nc1ccc(C)c(Nc2nccc(-c3cccnc3)n2)c1)c1ccc(Cl)c(Cl)c1 (stereo not given)
- IC50 [1]: 25 µM
- IC50 [2]: 25 µM
- IC50 [3]: 12.9 µM
- IC50 [4]: 7.07 µM
- IC50 [5]: 8.24 µM

Compound: CCOP(=O)(OCC)C(Nc1ccc(C)c(Nc2nccc(-c3cccnc3)n2)c1)c1ccc(N)cc1 (stereo not given)
- IC50 [1]: 21.4 µM
- IC50 [2]: 21.5 µM
- IC50 [3]: 10.2 µM
- IC50 [4]: 5.32 µM
- IC50 [5]: 6.39 µM

Compound: Cc1cc(Nc2cc(N3CCN(C)CC3)nc(Sc3ccc(NC(=O)C4CC4)cc3)n2)n[nH]1 [TOZASERTIB]
- IC50 [1]: 15.1 µM
- IC50 [2]: 18 µM
- IC50 [3]: 6.24 µM
- IC50 [4]: 1.02 µM
- IC50 [5]: 1.88 µM

Compound: CCOP(=O)(OCC)C(Nc1ccc(C)c(Nc2nccc(-c3cccnc3)n2)c1)c1ccco1 (stereo not given)
- IC50 [1]: 15.8 µM
- IC50 [2]: 18.9 µM
- IC50 [3]: 7.16 µM
- IC50 [4]: 3.36 µM
- IC50 [5]: 3.78 µM

Compound: CCOP(=O)(OCC)C(Nc1ccc(C)c(Nc2nccc(-c3cccnc3)n2)c1)c1c[nH]c2ccccc12 (stereo not given)
- IC50 [1]: 18.2 µM
- IC50 [2]: 19.9 µM
- IC50 [3]: 8.94 µM
- IC50 [4]: 4.66 µM
- IC50 [5]: 4.92 µM

Compound: CCOP(=O)(OCC)C(Nc1ccc(C)c(Nc2nccc(-c3cccnc3)n2)c1)c1ccc(Cl)cc1 (stereo not given)
- IC50 [1]: 24 µM
- IC50 [2]: 24.8 µM
- IC50 [3]: 12 µM
- IC50 [4]: 6.09 µM
- IC50 [5]: 7.19 µM

Compound: CCOP(=O)(OCC)C(Nc1ccc(C)c(Nc2nccc(-c3cccnc3)n2)c1)c1ccc(OC)cc1 (stereo not given)
- IC50 [1]: 24.3 µM
- IC50 [2]: 24.9 µM
- IC50 [3]: 13 µM
- IC50 [4]: 6.42 µM
- IC50 [5]: 7.87 µM

Compound: CCOP(=O)(OCC)C(Nc1ccc(C)c(Nc2nccc(-c3cccnc3)n2)c1)N1CCOCC1 (stereo not given)
- IC50 [1]: 29.2 µM
- IC50 [2]: 30.5 µM
- IC50 [3]: 20.3 µM
- IC50 [4]: 6.82 µM
- IC50 [5]: 7.65 µM

Compound: CCOP(=O)(OCC)C(Nc1ccc(C)c(Nc2nccc(-c3cccnc3)n2)c1)c1ccncc1 (stereo not given)
- IC50 [1]: 28.1 µM
- IC50 [2]: 28.5 µM
- IC50 [3]: 18.1 µM
- IC50 [4]: 6.38 µM
- IC50 [5]: 7.22 µM

Compound: CCOP(=O)(OCC)C(Nc1ccc(C)c(Nc2nccc(-c3cccnc3)n2)c1)c1ccc[nH]1 (stereo not given)
- IC50 [1]: 13.6 µM
- IC50 [2]: 17.5 µM
- IC50 [3]: 5.81 µM
- IC50 [4]: 1.59 µM
- IC50 [5]: 2.11 µM
- IC50 at 24 h [6]: 95.3 µM
- selectivity ratio [7]: 7
- IC50 [8]: 0.042 µM
- IC50 [9]: 0.022 µM
- Activity [10]: Active
- Activity [11]: Active
- Activity [12]: Active
- Activity [13]: Active
- Activity [14]: Active
- Activity [15]: Active
- Activity [16]: Active
- Activity [17]: Active

Compound: CCOP(=O)(OCC)C(Nc1ccc(C)c(Nc2nccc(-c3cccnc3)n2)c1)c1ccsc1 (stereo not given)
- IC50 [1]: 15.7 µM
- IC50 [2]: 18.8 µM
- IC50 [3]: 7.01 µM
- IC50 [4]: 2.46 µM
- IC50 [5]: 2.99 µM

Compound: CCOP(=O)(OCC)C(Nc1ccc(C)c(Nc2nccc(-c3cccnc3)n2)c1)N1CCCCC1 (stereo not given)
- IC50 [1]: 32.6 µM
- IC50 [2]: 34 µM
- IC50 [3]: 21.1 µM
- IC50 [4]: 6.86 µM
- IC50 [5]: 8.18 µM
